Measured values as given in patent US10576077B2, “Pharmaceutical salt forms of Cepharanthine and Tetrandrine” (Southwest Research Institute, priority 2015, dated 2020).
Counter-ions that a name gives are not always drawn.

How the values were obtained:
[1] = Solubility of Cepharanthine salts in water; format: physicochemical
[2] = format: physicochemical
Method: A small amount of the sample (0.6 ml) was removed from each vial and centrifuged to collect 0.3 ml clear supernatant.
The sample was filtered through a 0.45 μm PTFE syringe filter and the filtrate sent for HPLC analysis (Table 10).

rat test animals = test: Oral dosing of concentrated CEPN.2HCl water solutions in rats; format: in vivo; conditions: ENG sample, concentrated water solution

| Molecule | Sample solubility [2] | further results |
| --- | --- | --- |
| COc1ccc2cc1Oc1ccc(cc1)C[C@H]1c3c(cc4c(c3Oc3cc5c(cc3OC)CCN(C)[C@@H]5C2)OCO4)CCN1C [HBr salt, Cepharanthine bis-hydrobromide] |  | solubility ([1]; read-out: Final Concentration (solubility in water)): 17.1 mg/mL |
| CEPN.2HCl [16-0203-012-097-27] | 31.9 mg/mL |  |
| CEPN.2HCl [16-0203-012-098-10] | 38.7 mg/mL |  |
| CEPN.2HCl [16-0203-012-098-27] | 39.7 mg/mL |  |
| CEPN.2HCl [16-0203-012-105-23] | 36.5 mg/mL |  |
| CEPN.2HCl [16-0203-012-119-35] | 33.9 mg/mL |  |
| Cepharanthine bis-pyruvate [Pyruvic acid salt] |  | Final Concentration (solubility in water) [1]: 488 mg/mL |
| Cepharanthine.2HCl [CEPN.2HCl] |  | Final Concentration (solubility in water) [1]: 51.6 mg/mL; Effect of oral dosing of concentrated water solutions (rat test animals): gelation in the stomach of the rat test animals and resultant toxic effects |
